These compounds were tested against T1, Tyrosine-protein phosphatase non-receptor type 22 (Homo sapiens, UniProt Q9Y2R2) (assay: LYP phosphatase inhibitors, dose response, biochemical, fluorescence intensity, uHTS hits, set 2 (AID 435024)).
T1 sequence (Q9Y2R2 whole entry): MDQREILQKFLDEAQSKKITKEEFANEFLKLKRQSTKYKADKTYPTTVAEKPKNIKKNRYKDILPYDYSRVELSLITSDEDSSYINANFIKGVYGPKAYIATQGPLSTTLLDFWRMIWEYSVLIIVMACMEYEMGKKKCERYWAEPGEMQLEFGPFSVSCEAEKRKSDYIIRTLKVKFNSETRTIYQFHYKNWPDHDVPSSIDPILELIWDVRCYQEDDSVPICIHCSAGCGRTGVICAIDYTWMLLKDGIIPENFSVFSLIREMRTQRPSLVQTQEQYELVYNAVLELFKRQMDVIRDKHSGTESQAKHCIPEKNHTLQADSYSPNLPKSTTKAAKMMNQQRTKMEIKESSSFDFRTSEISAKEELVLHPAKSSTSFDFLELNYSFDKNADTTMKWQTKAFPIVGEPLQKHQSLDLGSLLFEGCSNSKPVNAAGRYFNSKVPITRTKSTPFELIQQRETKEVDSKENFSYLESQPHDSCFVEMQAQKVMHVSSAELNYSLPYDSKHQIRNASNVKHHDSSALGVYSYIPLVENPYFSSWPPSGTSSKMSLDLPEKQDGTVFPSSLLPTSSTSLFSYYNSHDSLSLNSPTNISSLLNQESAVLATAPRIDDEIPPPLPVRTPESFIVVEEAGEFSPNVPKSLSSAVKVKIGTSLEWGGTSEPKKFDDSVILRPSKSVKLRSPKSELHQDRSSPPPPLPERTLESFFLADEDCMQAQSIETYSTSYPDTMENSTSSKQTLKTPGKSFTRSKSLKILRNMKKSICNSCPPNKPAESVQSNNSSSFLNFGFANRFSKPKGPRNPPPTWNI

Row | Compound | IC50 [µM]
1 | O=C1C([N+](=O)[O-])=CC(Br)=CC1/C=N/n1cnnc1 (stereo not given) [MLS000714804] | > 79.4
2 | CCOC(=O)NC(=O)C(C=Nc1ccc(C)cc1)C(=O)NC(=O)OCC [ethyl 2-{[(ethoxycarbonyl)amino]carbonyl}-3-(4-toluidino)acryloylcarbamate] | > 79.4
3 | Cc1ccc(NN=C2C(=O)N(CN3CCOCC3)c3ccccc32)cc1 [(3Z)-3-[(4-methylphenyl)hydrazinylidene]-1-(4-morpholinylmethyl)-2-indolone] | > 79.4

Stronger by IC50, values ahead:

Row | IC50 [µM] | Compound
4 | 8.58 | N=C(NN=Cc1ccc2c(c1)OCO2)Sc1cc(O)n(-c2ccc(C(=O)O)cc2)c1O [4-(3-{[[(2E)-2-(1,3-benzodioxol-5-ylmethylene)hydrazino](imino)methyl]thio}-2,5-dioxopyrrolidin-1-yl)benzoic acid]
5 | 13.1 | COC1=CC=CC(/C=N/NC(=O)c2cc3cc([N+](=O)[O-])ccc3s2)C1=O (stereo not given) [SMR000237814]
